Our source for the activity coefficient values is the NIST ThermoML archive (doi:10.1021/je700640r).

The data set can be described thus: activity coefficient (dimensionless); of the first substance listed, at infinite dilution; xn = mol fraction of the nth substance listed. The following applies: Liquid, Chromatography, x1 = 0.

± gives the expanded uncertainty stated by the source.

Regarding `C1COCCO1` [1,4-dioxane] + CCC[n+]1ccn(C)c1C.F[B-](F)(F)F, the activity coefficient is, setting by setting: (303.15 K) 2.96 ± 0.26; (313.15 K) 3.08 ± 0.27; (323.15 K) 3.14 ± 0.27; (333.15 K) 3.17 ± 0.27; (343.15 K) 3.24 ± 0.28; (353.15 K) 3.29 ± 0.28. Where the note is “363.15 K”, the activity coefficient came to 3.35 ± 0.29.
On to `CC(C)CO` [2-methyl-1-propanol] + CCC[n+]1ccn(C)c1C.F[B-](F)(F)F, for which the activity coefficient came out at 4.17 ± 0.36 (303.15 K); 3.87 ± 0.33 (313.15 K); 3.47 ± 0.3 (323.15 K); 3.07 ± 0.26 (333.15 K); 2.62 ± 0.23 (343.15 K); 2.38 ± 0.2 (353.15 K). In addition, where the note is “363.15 K”, the activity coefficient was 2.03 ± 0.17.
Consider `CC(C)CCO` [3-methylbutan-1-ol] + CCC[n+]1ccn(C)c1C.F[B-](F)(F)F, for which the activity coefficient came to 4.91 ± 0.42 (313.15 K); 4.46 ± 0.39 (323.15 K); 4.18 ± 0.36 (333.15 K); 3.78 ± 0.33 (343.15 K); 3.42 ± 0.29 (353.15 K); 3.02 ± 0.26 (363.15 K).
Regarding `CC(C)=O` [acetone] + CCC[n+]1ccn(C)c1C.F[B-](F)(F)F, the activity coefficient (303.15 K) is 2.47 ± 0.21; the activity coefficient (313.15 K) is 2.53 ± 0.22; the activity coefficient (323.15 K) stood at 2.55 ± 0.22; the activity coefficient (333.15 K) is 2.61 ± 0.23; the activity coefficient (343.15 K) was 2.66 ± 0.23; the activity coefficient (353.15 K) amounted to 2.71 ± 0.23. Further, under “363.15 K”, the activity coefficient came to 2.74 ± 0.24.
On to `CC#N` [acetonitrile] + CCC[n+]1ccn(C)c1C.F[B-](F)(F)F, for which the activity coefficient is, setting by setting: (303.15 K) 1.4 ± 0.12; (313.15 K) 1.39 ± 0.12; (323.15 K) 1.38 ± 0.12; (333.15 K) 1.37 ± 0.12; (343.15 K) 1.36 ± 0.11; (353.15 K) 1.35 ± 0.11. The activity coefficient (363.15 K) is 1.34 ± 0.11.
`CCCCO` [butan-1-ol] + CCC[n+]1ccn(C)c1C.F[B-](F)(F)F: the activity coefficient amounted to 5.05 ± 0.44 (303.15 K); 4.67 ± 0.4 (313.15 K); 4.2 ± 0.36 (323.15 K); 3.73 ± 0.32 (333.15 K); 3.2 ± 0.28 (343.15 K); 2.67 ± 0.23 (353.15 K). The activity coefficient (363.15 K) was found to be 2.27 ± 0.2.
Turning to `CCC(C)O` (configuration not stated) [butan-2-ol] + CCC[n+]1ccn(C)c1C.F[B-](F)(F)F, the activity coefficient worked out at 4.28 ± 0.37 (303.15 K); 3.99 ± 0.34 (313.15 K); 3.67 ± 0.32 (323.15 K); 3.3 ± 0.28 (333.15 K); 2.87 ± 0.25 (343.15 K); 2.5 ± 0.22 (353.15 K). The activity coefficient (363.15 K) amounted to 2.13 ± 0.18.
As for `ClCCl` [dichloromethane] + CCC[n+]1ccn(C)c1C.F[B-](F)(F)F, the activity coefficient (303.15 K) was determined as 1.67 ± 0.14; the activity coefficient (313.15 K) was 1.74 ± 0.15; the activity coefficient (323.15 K) came out at 1.84 ± 0.16; the activity coefficient (333.15 K) came out at 1.93 ± 0.17; the activity coefficient (343.15 K) is 2.01 ± 0.17; the activity coefficient (353.15 K) was found to be 2.09 ± 0.18. Further, the activity coefficient (363.15 K) is 2.17 ± 0.19.
Turning to `CCO` [ethanol] + CCC[n+]1ccn(C)c1C.F[B-](F)(F)F, the activity coefficient runs as follows: (303.15 K) 1.86 ± 0.16; (313.15 K) 1.68 ± 0.14; (323.15 K) 1.6 ± 0.14; (333.15 K) 1.51 ± 0.13; (343.15 K) 1.44 ± 0.12; (353.15 K) 1.35 ± 0.11. Besides, the activity coefficient (363.15 K) was determined as 1.18 ± 0.098.
Consider `CCOC(C)=O` [ethyl acetate] + CCC[n+]1ccn(C)c1C.F[B-](F)(F)F, for which the activity coefficient is, setting by setting: (303.15 K) 8.86 ± 0.77; (313.15 K) 8.84 ± 0.76; (323.15 K) 8.79 ± 0.76; (333.15 K) 8.75 ± 0.76; (343.15 K) 8.71 ± 0.75; (353.15 K) 8.66 ± 0.75. Where the note is “363.15 K”, the activity coefficient amounted to 8.63 ± 0.74.
`CO` [methanol] + CCC[n+]1ccn(C)c1C.F[B-](F)(F)F: the activity coefficient is, setting by setting: (303.15 K) 0.898 ± 0.074; (313.15 K) 0.869 ± 0.072; (323.15 K) 0.823 ± 0.069; (333.15 K) 0.777 ± 0.065; (343.15 K) 0.713 ± 0.061; (353.15 K) 0.684 ± 0.059. Also, for the setting “363.15 K”, the activity coefficient was 0.642 ± 0.056.
As to `CCCCCO` [pentan-1-ol] + CCC[n+]1ccn(C)c1C.F[B-](F)(F)F, the activity coefficient was 6.2 ± 0.54 (313.15 K); 5.31 ± 0.46 (323.15 K); 4.65 ± 0.4 (333.15 K); 4.05 ± 0.35 (343.15 K); 3.68 ± 0.32 (353.15 K); 3.12 ± 0.27 (363.15 K).
For `CCCO` [propan-1-ol] + CCC[n+]1ccn(C)c1C.F[B-](F)(F)F, the activity coefficient reads like this: (303.15 K) 3.26 ± 0.28; (313.15 K) 3.01 ± 0.26; (323.15 K) 2.81 ± 0.24; (333.15 K) 2.59 ± 0.22; (343.15 K) 2.37 ± 0.2; (353.15 K) 2.19 ± 0.19. Besides, the activity coefficient (363.15 K) was determined as 1.88 ± 0.16.
Turning to `CC(C)O` [propan-2-ol] + CCC[n+]1ccn(C)c1C.F[B-](F)(F)F, the activity coefficient (303.15 K) came to 2.62 ± 0.23; the activity coefficient (313.15 K) came to 2.53 ± 0.22; the activity coefficient (323.15 K) worked out at 2.45 ± 0.21; the activity coefficient (333.15 K) was 2.33 ± 0.2; the activity coefficient (343.15 K) is 2.21 ± 0.19; the activity coefficient (353.15 K) worked out at 2.04 ± 0.18. In addition, the activity coefficient (363.15 K) turned out to be 1.86 ± 0.16.
In the case of `ClC(Cl)(Cl)Cl` [tetrachloromethane] + CCC[n+]1ccn(C)c1C.F[B-](F)(F)F, the activity coefficient was 8.11 ± 0.7 (303.15 K); 8.63 ± 0.74 (313.15 K); 9.13 ± 0.79 (323.15 K); 9.58 ± 0.83 (333.15 K); 10 ± 0.86 (343.15 K); 10.4 ± 0.9 (353.15 K). Under “363.15 K”, the activity coefficient came out at 10.7 ± 0.92.
`C1CCOC1` [tetrahydrofuran] + CCC[n+]1ccn(C)c1C.F[B-](F)(F)F: the activity coefficient by setting is: (303.15 K) 6.03 ± 0.52; (313.15 K) 5.98 ± 0.52; (323.15 K) 5.95 ± 0.51; (333.15 K) 5.92 ± 0.51; (343.15 K) 5.88 ± 0.51; (353.15 K) 5.82 ± 0.5. Moreover, the activity coefficient (363.15 K) stood at 5.78 ± 0.5.
As for `ClC(Cl)Cl` [trichloromethane] + CCC[n+]1ccn(C)c1C.F[B-](F)(F)F, the activity coefficient is, setting by setting: (303.15 K) 1.14 ± 0.094; (313.15 K) 1.29 ± 0.11; (323.15 K) 1.4 ± 0.12; (333.15 K) 1.52 ± 0.13; (343.15 K) 1.65 ± 0.14; (353.15 K) 1.78 ± 0.15. Also, under “363.15 K”, the activity coefficient stood at 1.91 ± 0.16.
